# Key:
# [1] = Determination of log K by ITC (isothermal titration calorimetry); settings: binding constant of chelator and calcium ions, pH 10
# From the text: Chelating agents can also be characterized by the binding constant of the chelating agent (chelator) and calcium ions. This constant can be determined by ITC (isothermal titration calorimetry) as described by AD Nielsen, CC Fuglsang and […], Analytical Biochemistry Vol. 314 (2003) page 227-234 and T Wiseman, S Williston, JF Brandts and L-N Lin, Analytical Biochemistry Vol. 179 (1989) page 131-137. All glassware and plastic bottles used are washed with a 1 % (w/w) EDTA solution and subsequently rinsed thoroughly in Chelex 100 treated ultrapure water (Milli-Q water). Solutions are stored in plastic bottles and kept at 5°C until use. […] • 125 μM chelant in 20 mM HEPES, pH 8 or 125 μM chelant in 20 mM glycine, pH 10 • 4 mM CaCl2 in 20 mM HEPES, pH 8 or 4 mM CaCl2 in 20 mM glycine, pH 10 • Ultrapure water (Milli-Q water) […] All solutions are degassed by stirring under vacuum before the experiments. INSTRUMENT: MCS-ITC (MicroCal Inc., Northampton, MA, USA) The reference cell is filled with ultrapure water (Milli-Q water). The sample cell is filled with the chelant solution at the selected pH and the syringe is filled with the calcium solution at the selected pH. The solutions are equilibrated to the desired temperature, e.g. 19°C. […] The obtained signals from the ITC are then integrated using the Origin software supplied by MicroCal Inc. To obtain the binding isotherms, regression routines are made using the same software package. […] Presently preferred is the "OneSites" model which gives the best fit for most of the commonly used chelating agents, i.e. the residuals are evenly distributed around zero. […] Alternatively, the chelating agents can be characterized by the binding constant of the chelating agent (chelator) and calcium ions. This constant can be determined by ITC (isothermal titration calorimetry) as described by AD Nielsen, CC Fuglsang and […], Analytical Biochemistry Vol. 314 (2003) page 227-234 and T Wiseman, S Williston, JF Brandts and L-N Lin, Analytical Biochemistry Vol. 179 (1989) page 131-137. The procedure for the determination of log K is described in detail above under "Materials and Methods". Using this procedure for determination of log K, the following log K values for several chelating agents were determined at pH 10 (Table 12.3). Table 12.3
# [2] = Assay for measurement of free calcium ions (calcium ion selective electrode); assay type: physicochemical; settings: pH 8.0, 49 mM EPPS buffer, 80 mM potassium chloride, 21 °C; for chelator concentrations necessary to reduce the concentration of free calcium ions from 2.0 mM to 0.10 mM: by interpolation
# Experimental: The following assay may be used for the measurement of free calcium ions in solution, and thus for the determination of chelating agents (chelants) ability to reduce the concentration of free calcium ions (Ca2+) from e.g. 2.0 mM to 0.10 mM at pH 8.
# Various amounts of chelants are added to a solution of 2.0 mM Ca2+ and the free Ca2+ concentration is determined by using a Calcium Ion Selective Electrode at fixed pH and temperature. The concentration of chelant necessary to reduce the concentration of free calcium from 2.0 mM to 0.10 mM can be determined from a plot of the free calcium concentration measured versus the concentration of chelant. In the present assay the concentration of chelant necessary to reduce the concentration of free calcium from 2.0 mM to 0.10 mM is measured at pH 8, at 21°C, in potassium chloride and 49 mM EPPS.
# Electrolyte solution: 4 M potassium chloride in ultrapure water (Milli-Q water). pH 8 buffer: 50 mM EPPS (4-(2-Hydroxyethyl)piperazine-1-propanesulfonic acid) adjusted to pH 8.0 using minimum amounts of 1 N sodium hydroxide. Calcium stock solution: 25 mM Ca2+ in pH 8 buffer, made from CaCl2.2H2O. Chelant stock solution: 15 mM chelant (on a 100 % dry chelator basis) in pH 8 buffer, re-adjusted to pH 8.0 using minimum amounts of 1 M NaOH or 1 M HCl.
# Calcium Ion Selective Electrode from Thermo Scientific (cat. No. 9720BNWP) calibrated against a Calcium chloride standard solution. The electrode is calibrated as described by the guidelines following the electrode.
# A series of vials are prepared, each containing 4 mL of the calcium stock solution (final concentration 2.0 mM), 1 mL electrolyte solution (final concentration 80 mM potassium chloride), chelant stock solution in various amounts (0 - 45 mL) and using the pH 8 buffer for adjusting the total volume to 50 mL. The final concentration of EPPS in the assay is 49 mM. After mixing, the concentration of free Ca2+ is measured by the calcium electrode. The free calcium concentration should be determined at a sufficient number of different chelant concentrations for each chelant tested, ensuring that the data set covers the entire range from 2.0 mM free calcium ions to a value below 0.10 mM or the final chelant concentration in the assay is higher than 10.0 mM. A suitable number of data points are 8 or more. The chelant concentration required to lower the initial 2.0 mM free calcium ions to 0.10 mM is obtained from a plot of the measured free calcium ion concentration versus chelator concentration by interpolation.
# The solutions are equilibrated to the desired temperature, which in the present assay is 21°C.
# Chelating agents (chelants) may be ranked by their ability to reduce the concentration of free calcium ions (Ca2+) from 2.0 mM to 0.10 mM at pH 8 developed from a method described by M.K.Nagarajan et al., JAOCS, Vol. 61, no. 9 (September 1984), pp. 1475-1478. The assay described above under "Materials and Methods" for measuring of free calcium ions was used. Accordingly, the concentration of chelant necessary to reduce the water hardness from 2.0 mM to 0.10 mM was determined as described above. The experiment was carried out with the pH 8 buffer at 21 °C. Table 12.1: Concentration of free Ca2+ determined in a mixture of 2.0 mM Ca2+ and various amounts of chelating agent at pH 8.
# A number of chelants were characterized using this assay, and the chelator concentrations necessary to reduce the concentration of free calcium ions from 2.0 mM to 0.10 mM at pH 8.0 in 49 mM EPPS buffer and 80 mM potassium chloride are shown below in Table 12.2. This table can thus also be used for comparing the capabilities of the chelating agents for reducing the concentration of free calcium ions. Table 12.2
Compound,Log K [1],"chelator concentration to reduce free calcium ions from 2.0 mM to 0.10 mM, Relative to citrate [2]",chelator concentrations necessary to reduce the concentration of free calcium ions from 2.0 mM to 0.10 mM [2]
"O=C(O)CN(CCN(CC(=O)O)CC(=O)O)CC(=O)O [EDTA, ethylene diamine tetraacetate]",8,0.21,1.90 mM
O=C(O)CC(O)(CC(=O)O)C(=O)O [Citrate],3,1.00,8.36 mM
"O=P(O)(O)CN(CCN(CP(=O)(O)O)CP(=O)(O)O)CCN(CP(=O)(O)O)CP(=O)(O)O [DTMPA, diethylenetriaminepenta(methylene-phosphonic acid)]",–,0.25,1.17 mM
"CC(O)(P(=O)(O)O)P(=O)(O)O [HEDP, 1-Hydroxyethylidene-1,1-Diphosphonic Acid]",6,0.20,1.60 mM
"O=C(O)CN(CCN(CC(=O)O)CC(=O)O)CCN(CC(=O)O)CC(=O)O [DTPA, diethylenetriaminepentaacetic acid]",7,0.24,1.87 mM
"C[C@@H](C(=O)O)N(CC(=O)O)CC(=O)O [MGDA, methylglycinediacetic acid or N,N'-bis(carboxymethyl)alanine]",2.56,0.33,2.56 mM
"O=C(O)CN(CCOCCOCCN(CC(=O)O)CC(=O)O)CC(=O)O [EGTA, ethylene glycol tetraacetic acid]",9,0.33,2.60 mM

# From patent publication EP3122861B1, “LIQUID DETERGENT COMPOSITIONS COMPRISING AN ALPHA-AMYLASE” (priority 2014, dated 2015)
